Legend:
Assay in all cases: microscale thermophoresis, native tryptophan fluorescence, Hill fit n = […]
Assay type in all cases: binding
Conditions in all cases: read-out: Measured EC50
[1] = molecular target: T1, mOR174-9 (Mus musculus, UniProt Q920P2)
T1 construct: gene Or5d18; full length; C-terminal GSSG linker plus rho1D4 tag (TETSQVAPA); E. coli cell-free expression in Brij-35, purified in FC-14
T1 sequence (Q920P2 1-313): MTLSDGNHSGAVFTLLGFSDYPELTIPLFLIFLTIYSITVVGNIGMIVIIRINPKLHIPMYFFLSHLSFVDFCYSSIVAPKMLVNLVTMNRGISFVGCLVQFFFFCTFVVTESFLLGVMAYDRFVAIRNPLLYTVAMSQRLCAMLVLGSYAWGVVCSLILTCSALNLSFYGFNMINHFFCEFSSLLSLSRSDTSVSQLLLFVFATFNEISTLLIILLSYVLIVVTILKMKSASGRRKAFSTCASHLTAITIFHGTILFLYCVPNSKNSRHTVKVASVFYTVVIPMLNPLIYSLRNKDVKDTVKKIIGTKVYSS

[2] = molecular target: T2, mOR174-4 (Mus musculus, UniProt Q920P1)
T2 construct: gene Or5d47; full length; C-terminal GSSG linker plus rho1D4 tag (TETSQVAPA); E. coli cell-free expression in Brij-35, purified in FC-14
T2 sequence (Q920P1 1-318): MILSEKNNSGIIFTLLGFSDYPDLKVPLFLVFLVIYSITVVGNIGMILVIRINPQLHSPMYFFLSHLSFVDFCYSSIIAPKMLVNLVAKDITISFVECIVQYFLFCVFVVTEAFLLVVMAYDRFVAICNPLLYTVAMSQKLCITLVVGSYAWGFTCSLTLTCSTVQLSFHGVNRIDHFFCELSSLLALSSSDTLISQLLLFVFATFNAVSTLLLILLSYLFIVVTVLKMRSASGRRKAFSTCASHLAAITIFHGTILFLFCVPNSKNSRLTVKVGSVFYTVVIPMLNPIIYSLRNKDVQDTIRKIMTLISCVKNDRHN

[3] = molecular target: T3, mOR103-15 (Mus musculus, UniProt Q9QWU6)
T3 construct: gene Or6a2; full length; C-terminal GSSG linker plus rho1D4 tag (TETSQVAPA); E. coli cell-free expression in Brij-35, purified in FC-14
T3 sequence (Q9QWU6 1-327): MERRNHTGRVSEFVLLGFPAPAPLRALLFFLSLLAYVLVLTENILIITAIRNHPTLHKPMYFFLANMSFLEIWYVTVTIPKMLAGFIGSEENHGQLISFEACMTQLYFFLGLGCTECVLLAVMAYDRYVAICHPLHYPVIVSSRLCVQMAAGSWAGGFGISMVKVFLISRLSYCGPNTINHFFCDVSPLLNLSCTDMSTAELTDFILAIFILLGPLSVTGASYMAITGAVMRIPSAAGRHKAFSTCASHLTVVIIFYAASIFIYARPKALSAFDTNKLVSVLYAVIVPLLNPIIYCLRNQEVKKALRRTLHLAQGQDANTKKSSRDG

EC50 [3] [µM]	Compound	EC50 [1] [µM]	EC50 [2] [µM]
–	CCOc1cc(C=O)ccc1O [Ethyl Vanillin]	4.9 ± 3.5	7 ± 2
2 ± 0.7	CCCCCCC=O [Heptanal]	–	–
